Test results taken from ChEMBL document CHEMBL5465560, “Selectivity Literature for EUbOPEN Chemogenomic Library” (2024).

Columns and labels:
[1] = target: T1, Dual serine/threonine and tyrosine protein kinase (Homo sapiens) (UniProt Q6XUX3); experiment: Selectivity interaction (KinomeScan (DiscoverX)) EUB0001049a DSTYK; details: at 1 µM
T1 sequence (whole entry): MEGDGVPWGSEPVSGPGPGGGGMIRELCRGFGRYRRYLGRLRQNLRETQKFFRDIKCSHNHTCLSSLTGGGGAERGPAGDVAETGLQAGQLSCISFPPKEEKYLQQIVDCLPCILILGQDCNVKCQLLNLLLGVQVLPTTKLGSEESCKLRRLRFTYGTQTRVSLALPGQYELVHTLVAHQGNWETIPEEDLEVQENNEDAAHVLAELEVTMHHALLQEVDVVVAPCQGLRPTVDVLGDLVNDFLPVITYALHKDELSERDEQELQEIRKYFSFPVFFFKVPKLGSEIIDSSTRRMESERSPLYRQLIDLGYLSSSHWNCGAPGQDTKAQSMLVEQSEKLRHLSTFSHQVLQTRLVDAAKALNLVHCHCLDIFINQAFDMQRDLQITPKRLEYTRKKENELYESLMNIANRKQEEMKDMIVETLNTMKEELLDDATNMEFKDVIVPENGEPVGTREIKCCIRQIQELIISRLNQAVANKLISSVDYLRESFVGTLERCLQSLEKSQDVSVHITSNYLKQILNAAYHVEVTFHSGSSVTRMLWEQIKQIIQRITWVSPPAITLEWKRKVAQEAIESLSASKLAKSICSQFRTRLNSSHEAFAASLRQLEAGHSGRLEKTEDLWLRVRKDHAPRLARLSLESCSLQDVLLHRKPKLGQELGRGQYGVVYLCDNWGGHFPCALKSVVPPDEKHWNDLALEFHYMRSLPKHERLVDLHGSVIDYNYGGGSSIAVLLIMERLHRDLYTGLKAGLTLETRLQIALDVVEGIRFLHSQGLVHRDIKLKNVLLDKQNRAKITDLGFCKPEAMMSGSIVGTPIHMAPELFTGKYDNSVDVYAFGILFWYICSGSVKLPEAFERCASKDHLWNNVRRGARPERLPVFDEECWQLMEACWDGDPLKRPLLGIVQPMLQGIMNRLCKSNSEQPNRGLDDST

[2] = target: eIF-2-alpha kinase GCN2 (Homo sapiens) (UniProt Q9P2K8); experiment: Selectivity interaction (ActivX KiNativ screen (kinase selectivity in THP-1 cell lysates)) EUB0000639a EIF2AK4; format: subcellular; details: lysate, at 0.04 µM
[3] = target: Bromodomain-containing protein 4 (Homo sapiens, UniProt O60885); experiment: Selectivity interaction (Bromodomain panel (DSF asssay)) EUB0000270b BRD4
[4] = target: Epidermal growth factor receptor (Homo sapiens, UniProt P00533); experiment: Selectivity interaction (Kinase panel (33PanQinase(R) Activity Assay)) EUB0000877a EGFR
Chain of Epidermal growth factor receptor (P00533 whole entry): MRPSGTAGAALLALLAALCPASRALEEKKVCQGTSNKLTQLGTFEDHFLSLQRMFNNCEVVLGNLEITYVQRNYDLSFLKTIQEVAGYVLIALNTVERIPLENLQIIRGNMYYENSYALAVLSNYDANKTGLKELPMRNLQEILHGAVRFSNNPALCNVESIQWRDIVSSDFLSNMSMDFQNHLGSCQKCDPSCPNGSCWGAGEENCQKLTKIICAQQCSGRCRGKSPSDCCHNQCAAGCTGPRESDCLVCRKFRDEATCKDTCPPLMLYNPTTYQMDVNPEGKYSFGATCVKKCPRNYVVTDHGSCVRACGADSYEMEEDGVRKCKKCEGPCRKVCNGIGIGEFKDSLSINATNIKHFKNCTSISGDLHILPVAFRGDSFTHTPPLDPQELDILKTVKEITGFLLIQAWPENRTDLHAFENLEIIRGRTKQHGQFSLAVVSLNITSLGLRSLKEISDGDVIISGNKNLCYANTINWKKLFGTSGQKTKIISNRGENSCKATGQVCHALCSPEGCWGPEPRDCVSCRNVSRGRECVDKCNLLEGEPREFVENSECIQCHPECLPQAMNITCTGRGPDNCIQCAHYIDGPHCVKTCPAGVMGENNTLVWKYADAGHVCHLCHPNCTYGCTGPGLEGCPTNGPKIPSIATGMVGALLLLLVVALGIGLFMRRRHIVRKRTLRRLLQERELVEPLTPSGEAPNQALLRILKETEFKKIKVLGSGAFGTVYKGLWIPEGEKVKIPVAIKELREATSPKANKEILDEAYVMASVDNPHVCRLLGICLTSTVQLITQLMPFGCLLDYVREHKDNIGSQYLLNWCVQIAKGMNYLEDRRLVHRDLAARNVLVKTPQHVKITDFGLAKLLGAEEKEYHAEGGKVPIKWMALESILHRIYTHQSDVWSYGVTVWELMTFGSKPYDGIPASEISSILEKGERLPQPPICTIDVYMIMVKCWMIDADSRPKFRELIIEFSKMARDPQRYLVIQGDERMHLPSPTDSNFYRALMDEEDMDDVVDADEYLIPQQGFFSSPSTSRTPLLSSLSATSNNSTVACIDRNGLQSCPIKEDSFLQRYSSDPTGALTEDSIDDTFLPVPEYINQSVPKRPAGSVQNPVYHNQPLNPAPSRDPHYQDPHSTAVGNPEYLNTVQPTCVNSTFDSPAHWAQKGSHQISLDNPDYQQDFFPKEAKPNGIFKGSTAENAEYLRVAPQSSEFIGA

[5] = target: Ribosomal protein S6 kinase alpha-5 (Homo sapiens) (UniProt O75582); experiment: Selectivity interaction (KinomeScan (DiscoverX)) EUB0000695a RPS6KA5; details: at 100 nM
Chain of Ribosomal protein S6 kinase alpha-5 (Homo sapiens) (O75582 whole entry, looked up): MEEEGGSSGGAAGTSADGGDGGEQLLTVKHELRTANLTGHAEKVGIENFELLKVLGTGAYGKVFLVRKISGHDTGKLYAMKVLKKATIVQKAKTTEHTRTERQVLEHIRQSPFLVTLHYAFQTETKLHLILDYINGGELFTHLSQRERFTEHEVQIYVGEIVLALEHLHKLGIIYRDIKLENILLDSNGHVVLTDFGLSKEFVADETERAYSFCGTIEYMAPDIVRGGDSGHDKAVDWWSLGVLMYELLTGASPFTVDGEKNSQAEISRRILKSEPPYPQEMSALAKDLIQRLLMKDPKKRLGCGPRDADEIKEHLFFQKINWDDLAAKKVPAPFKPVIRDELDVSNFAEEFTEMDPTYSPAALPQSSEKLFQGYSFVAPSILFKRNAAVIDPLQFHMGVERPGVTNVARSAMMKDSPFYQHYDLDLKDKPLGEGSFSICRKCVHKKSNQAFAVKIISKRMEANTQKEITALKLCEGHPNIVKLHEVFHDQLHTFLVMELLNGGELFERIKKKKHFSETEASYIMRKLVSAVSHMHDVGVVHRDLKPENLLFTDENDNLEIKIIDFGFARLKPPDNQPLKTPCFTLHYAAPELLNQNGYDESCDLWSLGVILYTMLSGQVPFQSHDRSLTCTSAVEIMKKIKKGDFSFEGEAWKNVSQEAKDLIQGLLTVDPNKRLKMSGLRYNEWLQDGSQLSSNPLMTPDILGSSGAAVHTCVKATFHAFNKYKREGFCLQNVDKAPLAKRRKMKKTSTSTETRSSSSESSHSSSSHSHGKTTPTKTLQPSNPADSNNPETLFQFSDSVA

[6] = target: T2, Testis-specific serine/threonine-protein kinase 1 (Homo sapiens) (UniProt Q9BXA7); experiment: Selectivity interaction (KinomeScan (DiscoverX)) EUB0000229b TSSK1B; details: at 10 µM
T2 sequence (whole entry): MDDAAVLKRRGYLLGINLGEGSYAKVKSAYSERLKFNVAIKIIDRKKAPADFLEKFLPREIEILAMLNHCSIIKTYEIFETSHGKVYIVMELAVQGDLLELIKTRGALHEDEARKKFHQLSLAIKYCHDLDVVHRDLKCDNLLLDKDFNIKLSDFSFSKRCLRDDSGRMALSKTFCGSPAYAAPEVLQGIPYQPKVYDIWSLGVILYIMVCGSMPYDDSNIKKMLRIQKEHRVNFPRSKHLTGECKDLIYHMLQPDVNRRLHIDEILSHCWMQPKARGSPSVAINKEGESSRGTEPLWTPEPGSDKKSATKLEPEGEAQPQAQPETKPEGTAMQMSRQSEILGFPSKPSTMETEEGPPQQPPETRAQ

[7] = target: Serine/threonine-protein kinase MARK2 (Homo sapiens) (UniProt Q7KZI7); experiment: Selectivity interaction (KinomeScan (DiscoverX)) EUB0001079a MARK2; details: at 1 µM
Chain of Serine/threonine-protein kinase MARK2 (Homo sapiens) (Q7KZI7 whole entry): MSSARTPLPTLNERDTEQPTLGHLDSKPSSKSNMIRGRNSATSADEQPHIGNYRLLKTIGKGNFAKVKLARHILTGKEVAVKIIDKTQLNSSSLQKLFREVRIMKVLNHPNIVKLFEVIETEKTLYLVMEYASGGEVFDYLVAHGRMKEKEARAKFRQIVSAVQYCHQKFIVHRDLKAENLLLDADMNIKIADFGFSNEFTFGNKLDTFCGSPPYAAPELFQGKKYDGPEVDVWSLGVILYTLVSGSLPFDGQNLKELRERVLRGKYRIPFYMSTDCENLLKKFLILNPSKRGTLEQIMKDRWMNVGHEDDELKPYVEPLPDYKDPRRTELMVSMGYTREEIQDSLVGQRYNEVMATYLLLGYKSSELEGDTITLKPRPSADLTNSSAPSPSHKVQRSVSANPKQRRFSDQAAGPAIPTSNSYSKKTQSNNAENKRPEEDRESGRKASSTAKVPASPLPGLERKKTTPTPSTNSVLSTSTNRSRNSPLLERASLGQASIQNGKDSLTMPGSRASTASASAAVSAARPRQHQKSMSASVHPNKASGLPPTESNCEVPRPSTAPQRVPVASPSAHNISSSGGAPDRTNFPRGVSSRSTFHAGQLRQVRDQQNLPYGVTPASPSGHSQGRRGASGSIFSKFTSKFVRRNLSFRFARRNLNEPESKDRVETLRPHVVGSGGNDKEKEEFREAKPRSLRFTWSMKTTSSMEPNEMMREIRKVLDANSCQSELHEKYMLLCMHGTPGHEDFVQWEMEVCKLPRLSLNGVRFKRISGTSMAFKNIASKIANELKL

[8] = target: Serine/threonine-protein kinase PAK 6 (Homo sapiens) (UniProt Q9NQU5); experiment: Selectivity interaction (KinomeScan (DiscoverX)) EUB0000092b PAK6; details: at 10 µM
[9] = target: High affinity nerve growth factor receptor (Homo sapiens, UniProt P04629); experiment: Selectivity interaction (Upstate Kinase Profiler service (Millipore)) EUB0000056c NTRK1; details: at 1 µM
[10] = target: T3, Mitogen-activated protein kinase 12 (Homo sapiens) (UniProt P53778); experiment: Selectivity interaction (KinomeScan (DiscoverX)) EUB0000045b MAPK12
T3 sequence (whole entry): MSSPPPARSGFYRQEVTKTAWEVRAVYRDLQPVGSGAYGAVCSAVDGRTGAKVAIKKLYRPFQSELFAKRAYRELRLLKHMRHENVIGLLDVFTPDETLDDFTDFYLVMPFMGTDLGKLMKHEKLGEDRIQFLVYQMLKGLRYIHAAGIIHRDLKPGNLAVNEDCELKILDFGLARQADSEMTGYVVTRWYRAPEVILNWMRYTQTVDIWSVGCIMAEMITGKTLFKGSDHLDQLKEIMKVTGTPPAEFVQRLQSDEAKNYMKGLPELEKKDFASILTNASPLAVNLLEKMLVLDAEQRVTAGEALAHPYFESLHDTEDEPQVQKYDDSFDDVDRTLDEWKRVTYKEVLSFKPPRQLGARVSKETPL

[11] = target: Non-receptor tyrosine-protein kinase TYK2 (Homo sapiens, UniProt P29597); experiment: Selectivity interaction (KinomeScan (DiscoverX)) EUB0001619a TYK2; details: at 1 µM
Chain of Non-receptor tyrosine-protein kinase TYK2 (P29597 whole entry): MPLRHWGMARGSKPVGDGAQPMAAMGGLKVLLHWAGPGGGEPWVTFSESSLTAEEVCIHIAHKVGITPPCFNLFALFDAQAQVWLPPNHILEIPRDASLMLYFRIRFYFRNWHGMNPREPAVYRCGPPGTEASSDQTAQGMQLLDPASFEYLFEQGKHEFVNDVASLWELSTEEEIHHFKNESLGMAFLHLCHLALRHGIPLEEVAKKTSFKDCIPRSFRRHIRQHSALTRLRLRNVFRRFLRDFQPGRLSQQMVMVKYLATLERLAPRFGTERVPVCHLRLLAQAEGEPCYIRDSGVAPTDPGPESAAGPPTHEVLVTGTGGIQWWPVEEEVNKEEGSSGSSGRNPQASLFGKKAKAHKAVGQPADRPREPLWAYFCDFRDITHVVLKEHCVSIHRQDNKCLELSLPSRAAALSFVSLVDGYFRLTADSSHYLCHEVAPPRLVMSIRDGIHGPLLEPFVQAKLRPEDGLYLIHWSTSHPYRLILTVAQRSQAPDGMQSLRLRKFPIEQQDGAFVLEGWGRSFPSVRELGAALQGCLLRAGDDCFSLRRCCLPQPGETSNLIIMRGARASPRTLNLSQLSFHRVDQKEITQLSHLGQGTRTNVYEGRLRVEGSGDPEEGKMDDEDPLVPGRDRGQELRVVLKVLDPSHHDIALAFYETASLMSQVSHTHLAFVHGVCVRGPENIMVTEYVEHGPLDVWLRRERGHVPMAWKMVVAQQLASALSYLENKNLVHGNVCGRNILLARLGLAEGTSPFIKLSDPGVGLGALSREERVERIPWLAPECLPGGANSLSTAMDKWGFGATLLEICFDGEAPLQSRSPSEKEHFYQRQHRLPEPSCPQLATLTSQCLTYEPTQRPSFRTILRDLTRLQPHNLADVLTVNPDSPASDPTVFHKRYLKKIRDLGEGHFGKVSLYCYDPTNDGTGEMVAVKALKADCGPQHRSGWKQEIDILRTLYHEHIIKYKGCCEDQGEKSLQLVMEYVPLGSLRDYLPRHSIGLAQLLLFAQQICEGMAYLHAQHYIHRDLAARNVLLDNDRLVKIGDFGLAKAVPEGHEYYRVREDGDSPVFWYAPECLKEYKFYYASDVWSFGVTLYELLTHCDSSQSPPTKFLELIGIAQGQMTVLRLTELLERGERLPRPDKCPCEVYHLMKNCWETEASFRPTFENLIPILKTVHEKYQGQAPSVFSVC

[12] = target: Ribosomal protein S6 kinase alpha-1 (Homo sapiens, UniProt Q15418); experiment: Selectivity interaction (Kinase panel (KiNativ target engagement assay in Jurkat cells)) EUB0001635a RPS6KA1; format: cell-based; details: Selectivity number of off-targets 0.0, Selectivity number of targets 233.0, Source Knowledge https://www.sciencedirect.com/science/article/pii/S2451945619300674?via%3Dihub, at 1 µM
Chain of Ribosomal protein S6 kinase alpha-1 (Q15418 whole entry): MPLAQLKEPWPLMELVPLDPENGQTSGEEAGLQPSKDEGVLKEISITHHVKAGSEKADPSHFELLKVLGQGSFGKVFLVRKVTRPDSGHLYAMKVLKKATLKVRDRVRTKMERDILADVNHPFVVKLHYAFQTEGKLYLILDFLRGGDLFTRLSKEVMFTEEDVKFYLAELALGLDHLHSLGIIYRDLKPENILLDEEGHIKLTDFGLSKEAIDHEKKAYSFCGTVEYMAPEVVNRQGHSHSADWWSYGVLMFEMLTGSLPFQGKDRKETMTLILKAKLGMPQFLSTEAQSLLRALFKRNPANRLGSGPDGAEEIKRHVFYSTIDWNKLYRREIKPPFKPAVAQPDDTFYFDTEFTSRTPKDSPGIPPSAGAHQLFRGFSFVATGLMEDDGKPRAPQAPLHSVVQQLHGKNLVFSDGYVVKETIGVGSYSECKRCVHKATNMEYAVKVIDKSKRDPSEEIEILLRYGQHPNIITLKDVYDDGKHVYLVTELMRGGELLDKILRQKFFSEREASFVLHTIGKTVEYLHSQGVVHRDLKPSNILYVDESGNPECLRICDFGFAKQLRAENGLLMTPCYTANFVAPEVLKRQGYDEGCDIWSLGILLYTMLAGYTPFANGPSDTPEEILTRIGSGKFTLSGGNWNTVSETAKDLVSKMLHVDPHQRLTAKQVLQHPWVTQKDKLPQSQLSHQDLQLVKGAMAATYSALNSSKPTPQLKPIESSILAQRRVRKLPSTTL

For `COc1cc(Nc2nc(C)cc(-c3cnn4nc(OC)ccc34)n2)cc(C(F)(F)F)c1`, which % of control [1] is on record?
Its % of control is 79%.

`CC[C@@H]1[C@H](F)C(=O)N[C@@H]1COc1nccc2cc(C(N)=O)c(OC)cc12` [ZIMLOVISERTIB] was tested. Which % of inhibition [2] did it give?
Its % of inhibition is 0.9%.

How did the dTM [3] turn out when `Cc1cc(CN)cc(C)c1-c1ncn(C)c1-c1cncn1C` was run?
The dTM was -1.68 K.

`CCC(=O)N1CC[C@H](Nc2ncnc3c2CN(c2cnc(OC)c(C(F)(F)F)c2)CC3)C1` [LENIOLISIB] was tested. Which IC50 [4] did it give?
The IC50 was > 10 µM.

Which % of control [5] does the source give for `Cc1cc(F)c(C(=O)Nc2cccc(-c3nncn3C(C)C)n2)cc1-n1cnc(C2CC2)c1` here?
The % of control was 100%.

Which % binding [6] does the source give for `COc1cc(N(C)c2ccnc3ccc(C(F)(F)F)cc23)cc(OC)c1OC` here?
The % binding was 91%.

How did the % of control [7] turn out when `Nc1cnc(N2CCc3cc(S(=O)(=O)Nc4c(F)cc(Cl)cc4F)cc(N4CCCC4=O)c32)nc1` [TP-020n] was run?
Its % of control is 74%.

Which % of control [8] does the source give for `CCC(=O)N1CCN(c2ccc(-n3c(=O)ccc4cnc5ccc(-c6cnc7ccccc7c6)cc5c43)cc2C(F)(F)F)CC1` here?
Its % of control is 87%.

`Cc1ccc(-c2ccc3c(ccc4sc5c(c43)NC[C@@H](C)NC5=O)n2)cn1` was tested. Which % of inhibition [9] did it give?
The % of inhibition was 3%.

Which results are given for `C=CC(=O)Nc1cc(-n2c(=O)ccc3cnc4ccc(-c5ccc(NS(C)(=O)=O)cc5)cc4c32)ccc1C`?
% of control ([10]; at 1 µM): 72%; % of control ([10]; at 10 µM): 79%

How did the % of control [11] turn out when `N#Cc1cccc(-c2c[nH]c3ncnc(N4CCOCC4)c23)c1` was run?
Its % of control is 75%.

For `C=CC(=O)Nc1ccc(C(=O)Nc2[nH]nc3c2CN(C(=O)N[C@H](CN(C)C)c2ccccc2)C3(C)C)cc1`, which % of engagement [12] is on record?
Its % of engagement is 14.4%.
